From EP4775577A1, “RAS INHIBITOR” (Tyligand Bioscience (Shanghai) Limited, priority 2023, dated 2025)
Like-named read-outs stand apart in the source and are kept apart here.

What was measured:
[1] = test system: KRAS G12D mutant AGS cells; assay: Proliferation inhibition of AGS cells, CellTiter-Glo assay; format: cell-based, human; conditions: 3 days, CTG, read-out: AGS IC50/nM
Method: AGS cells (Nanjing Kebai Biotechnology Co., Ltd., catalog number CBP60476, adherent, culture medium (F12K Nutrient Mixture+10% FBS (GIBCO, Cat#10091-148) were cultured at 37°C, 5% CO2, and 95% humidity at a density of 1500 cells/well. Cells in the logarithmic growth phase were harvested and counted using a Countstar automated cell counter based on the classic trypan blue staining method to ensure cell viability was above 90%. The cell concentration was adjusted, and 80 µL of cell suspension was added to each 96-well clear flat-bottomed, black-walled plate (Greiner, Cat# 655090). The cells in the 96-well plates were then cultured at 37°C and 5% CO2.
Drug preparation for IC50 assay: A 5-fold drug solution was prepared using culture medium. 20 µL of the drug solution was added to each well of a 96-well plate seeded with cells to achieve a working concentration of up to 10 µM, with a 3 × dilution, and a total of 9 concentrations. 2 replicate wells for each drug concentration were set. The cells in the drug-treated 96-well plates were cultured at 37°C and 5% CO2 for additional 3 days and then CTG assay were performed.
The cell plate was equilibrated to room temperature for 30 minutes and the CTG reagent (CellTiter-Glo® Luminescent Cell Viability Assay (Promega, Cat# G7573)) was thawed. 50 µL of CTG solution was added to each well and the plate was shaken on an orbital shaker for 2 minutes to lyse the cells. The cell plate was placed at room temperature for 10 minutes to stabilize the cryo-luminescence signal and the cryo-luminescence value was read (EnVision® Multifunctional microplate reader, PerkinElmer #2105).
(§1) Data was analyzed using GraphPad Prism software. The dose-response-inhibition equation was used to fit the data to obtain the dose-response curve, and the IC50 value (nM) was calculated accordingly. [formula]

[2] = test system: KRAS G12V mutant NCI-H727 cells; assay: Proliferation inhibition of NCI-H727 cells, 3D CellTiter-Glo assay (Method B); format: cell-based, human; conditions: Method B, 3D culture with 0.65% methylcellulose, 5 days, CTG, read-out: NCI-H727 IC50/nM
Method: NCI-H727 cells (Nanjing Kebai Biotechnology Co., Ltd., catalog number CBP60182, adherent, culture medium RPMI-1640+10%FBS (GIBCO, Cat#10091-148)) were cultured at 37°C, 5% CO2, and 95% humidity.
3D cell viability assay: Cells in the logarithmic growth phase were harvested and counted using a platelet counter. Cell viability was assessed using the trypan blue exclusion method to ensure a viability of over 90%. The 3D cell culture medium was prepared by adding 1% MC (methylcellulose, Sigma, Cat#M0512) to RPMI-1640 medium and 10% FBS. The cell concentration was adjusted to approximately 25,000 cells/mL using the 3D medium, and the methylcellulose (MC) content was set to 0.65%. Then, 80 µL of cell suspension was added to each 96-well clear, flat-bottomed, black-walled plate (Greiner, Cat# 655096). The cells in the 96-well plates were cultured overnight at 37°C and 5% CO2.
Drug preparation for IC50 assay: A 5-fold drug solution was prepared using culture medium. 20 µL of the drug solution was added to each well of a 96-well plate seeded with cells to achieve a working concentration of up to 10 µM, with a 3× dilution, and 9 concentrations. 2 replicate wells for each drug concentration were set. The cells in the drug-treated 96-well plates were cultured at 37°C and 5% CO2 for additional 5 days, then CTG assay (CellTiter-Glo® Luminescent Cell Viability Assay (Promega, Cat#G7573)) were performed.
The cell plate was equilibrated to room temperature for 30 minutes and the CTG reagent was thawed. 50 µL of CTG solution was added to each well for detection and the plate was shaken on an orbital shaker for 5 minutes to lyse the cells. The cell plate was then placed at room temperature for 25 minutes to stabilize the cryo-luminescence signal, and the cryo-luminescence value was read (EnVision® multi-plate reader, PerkinElmer#2105).
as §1

SMILES	IC50 ([1]; Homo sapiens, AGS, 72 h) [nM]	IC50 ([2]; Homo sapiens, NCI-H727, 120 h) [nM]	also measured
CCN1CC[C@H](C(F)F)[C@](C)(COc2nc(N3Cc4c(COC)c(C(=O)N(C)C)nn4CC[C@@H]3C)c3cc(C(F)(F)F)c(-c4ncc(F)c5sc(N)c(C#N)c45)c(F)c3n2)C1 [Example 272A]	12.5	10.4	–
[2H]C([2H])([2H])N1CCC(C(F)F)C(C)(COc2nc(N3CCOCC(C)(O)C3)c3cc(C(F)(F)F)c(-c4ccc(F)c5sc(N)c(C#N)c45)c(F)c3n2)C1 (centres unmarked) [Example 99]	13.1	2.4	–
CN1CC/C(=C\F)[C@](C)(COc2nc(N3CCCn4nc(C(=O)N(C)C)cc4C3)c3cc(/C=C/F)c(-c4cccc5sc(N)c(C#N)c45)c(F)c3n2)C1 [Example 111]	25.6	54.7	–
CCN1CC/C(=C\F)[C@](C)(COc2nc(N3Cc4c(COC)c(C(=O)N(C)C)nn4CC[C@@H]3C)c3cc(Cl)c(-c4c(F)ccc5sc(N)c(C#N)c45)c(OC)c3n2)C1 [Example 273A]	40.6	26.6	–
CCc1cc2c(N3Cc4c(Cl)c(C(=O)N(C)C)nn4CCC3C)nc(OCC3(C)CN(C)CCC3=CF)nc2c(F)c1-c1c(F)ccc2sc(N)c(C#N)c12 (centres unmarked) [Example 194]	< 1.5	< 1.5	–
CCN1CCC(=CF)C(C)(COc2nc(N3Cc4c(Cl)nnn4CCC3C)c3cc(Cl)c(-c4c(F)ccc5sc(N)c(C#N)c45)c(F)c3n2)C1 (centres unmarked) [Example 259A]	3.1	1.7	–
[2H]C([2H])([2H])N1CC/C(=C\F)[C@](C)(COc2nc(N3Cc4c(F)c(C(=O)N(C)C)nn4CC[C@@H]3C)c3cc(CC)c(-c4c(F)ccc5sc(N)c(C#N)c45)c(F)c3n2)C1 (single isomer, unassigned) [Example 181A]	< 1.5	–	–
CCN1CCC(=CF)C(C)(COc2nc(N3Cc4cc(C(=O)N(C)C)nn4CCC3C)c3cc(Cl)c(-c4c(C#N)c(N)cc(C)c4C(F)(F)F)c(C)c3n2)C1 (centres unmarked) [Example 221]	103	71.8	–
CN1CC[C@H](C(F)F)[C@](C)(COc2nc(N3CCC[C@@](C)(O)C3)c3cc(C(F)(F)F)c(-c4cccc5sc(N)c(C#N)c45)c(F)c3n2)C1 (atropisomer, axis not shown) [Example 3A, (R)-2-amino-4-(2-(((3S,4S)-4-(difluoromethyl)-1,3-dimethylpiperidine-3-yl)methoxy)-8-fluoro-4-((R)-3-hydroxy-3-methylpiperidine-1-yl)-6-(trifluoromethyl)quinazoline-7-yl)benzo[b]thiophene-3-carbonitrile]	112	40.7	–
CN1CC/C(=C\F)[C@](C)(COc2nc(N3CCOC[C@@](C)(O)C3)c3cc([N+](=O)[O-])c(-c4cccc5sc(N)c(C#N)c45)c(F)c3n2)C1 [Example 87]	–	–	IC50 [2]: 9 nM
[2H]C([2H])([2H])N1CCC(=CF)C(C)(COc2nc(N3Cc4cc(C(=O)N(C)C)nn4CCC3C)c3cc(Cl)c(-c4c(F)ccc5sc(N)c(C#N)c45)c(Cl)c3n2)C1 (centres unmarked) [Example 197]	3	2.1	–
CN1CC/C(=C\F)[C@](C)(COc2nc(N3CCCn4nc(C(=O)N(C)C)cc4C3)c3cc(C#N)c(-c4cccc5sc(N)c(C#N)c45)c(F)c3n2)C1 [Example 103]	301	–	–
CN1CC[C@H](C(F)F)[C@](C)(COc2nc(N3CCOC[C@@](C)(O)C3)c3cc([N+](=O)[O-])c(-c4cccc5sc(N)c(C#N)c45)c(F)c3n2)C1 [Example 86]	–	–	IC50 [2]: 4.5 nM
CN1CCC(=CF)C(C)(COc2nc(N3CCC(C#N)C(O)C3)c3cc(C(F)(F)F)c(-c4cccc5sc(N)c(C#N)c45)c(F)c3n2)C1 (centres unmarked) [Example 155]	–	–	IC50 [2]: 21 nM
[2H]C([2H])([2H])N1CC/C(=C\F)[C@](C)(COc2nc(N3CCOC[C@@](C)(O)C3)c3cc(C#N)c(-c4c(F)ccc5sc(N)c(C#N)c45)c(F)c3n2)C1 [Example 88, 7-(2-Amino-3-cyano-5-fluorobenzo[b]thiophene-4-yl)-8-fluoro-2-(((S,E)-4-(fluoromethylene)-3-methyl-1-(methyl-d3)piperidine-3-yl)methoxy)-4-((S)-6-hydroxy-6-methyl-1,4-oxazacycloheptane-4-yl)quinazoline-6-carbonitrile]	–	23.3	–
CN1CC/C(=C\F)[C@](C)(COc2nc(N3CCCn4nc(C(=O)N(C)C)c(Cl)c4C3)c3cc(C4CC4)c(-c4c(F)ccc5sc(N)c(C#N)c45)c(F)c3n2)C1 (single isomer, unassigned) [Example 161B]	–	–	IC50 [1]: 33.5 nM
[2H]C([2H])([2H])N1CC/C(=C\F)[C@](C)(COc2nc(N3Cc4cc(C(=O)N(C)C)nn4CC[C@@H]3C)c3cc(Cl)c(-c4c(F)ccc5sc(N)c(C#N)c45)c(C)c3n2)C1 (single isomer, unassigned) [Example 177A]	< 1.5	–	–
[2H]C([2H])([2H])N1CC/C(=C\F)[C@](C)(COc2nc(N3CCCn4nc(C(=O)N(C)C)c(Cl)c4C3)c3cc(Cl)c(-c4c(F)ccc5sc(N)c(C#N)c45)c(C)c3n2)C1 (single isomer, unassigned) [Example 179A]	4.2	–	–
CN1CC/C(=C\F)[C@](C)(COc2nc(N3CCOC[C@@](C)(O)C3)c3cc([N+](=O)[O-])c(-c4cccc5sc(N)c(C#N)c45)c(F)c3n2)C1 (atropisomer, axis not shown; (Ra)) [Example 87A]	–	–	IC50 [2]: 3.8 nM
[2H]C([2H])([2H])N1CC[C@H](C(F)F)[C@](C)(COc2nc(N3CCOC[C@@](C)(O)C3)c3cc([N+](=O)[O-])c(-c4cccc5sc(N)c(C#N)c45)c(F)c3n2)C1 [Example 86]	8.7	–	–
CN1CC/C(=C\F)[C@](C)(COc2nc3c(F)c(-c4cccc5sc(N)c(C#N)c45)c(Cl)cc3c(N3CCCn4nc(C(=O)N(C)C)cc4C3)c2C#N)C1 [Example 102]	–	4270	–
CN1CC[C@H](C(F)F)[C@](C)(COc2nc(N3CCOC[C@@](C)(O)C3)c3cc(C(F)(F)F)c(-c4c(F)ccc5sc(N)c(C#N)c45)c(F)c3n2)C1 (single isomer, unassigned) [Example 65B]	–	–	IC50 [2]: 39.3 nM
[2H]C([2H])([2H])N1CC[C@H](C(F)F)[C@](C)(COc2nc(N3CCOC[C@@](C)(O)C3)c3cc(C#N)c(-c4c(F)ccc5sc(N)c(C#N)c45)c(F)c3n2)C1 [Example 89, 7-(2-Amino-3-cyano-5-fluorobenzo[b]thiophene-4-yl)-2-(((3S,4S)-4-(difluoromethyl)-3-methyl-1-(methyl-d3)piperidine-3-yl)methoxy)-8-fluoro-4-((S)-6-hydroxy-6-methyl-1,4-oxazacycloheptane-4-yl)quinazoline-6-carbonitrile]	–	12.4	–
CN1CC/C(=C\F)[C@](C)(COc2nc(N3CCCn4nc(C(=O)N(C)C)nc4C3)c3cc(C(F)(F)F)c(-c4cccc5sc(N)c(C#N)c45)c(F)c3n2)C1 [Example 101]	100	–	–
CN1CC[C@H](C(F)F)[C@](C)(COc2nc(N3CCOC[C@@](C)(O)C3)c3cc(C(F)(F)F)c(-c4c(F)ccc5sc(N)c(C#N)c45)c(F)c3n2)C1 (single isomer, unassigned) [Example 65A]	–	–	IC50 [2]: < 1.5 nM
[2H]C([2H])([2H])N1CC/C(=C\F)[C@](C)(COc2nc(N3CCOC[C@@](C)(O)C3)c3cc(C#N)c(-c4cccc5sc(N)c(C#N)c45)c(F)c3n2)C1 [Example 90, 7-(2-Amino-3-cyanobenzo[b]thiophene-4-yl)-8-fluoro-2-(((S,E)-4-(fluoromethylene)-3-methyl-1-(methyl-d3)piperidine-3-yl)methoxy)-4-((S)-6-hydroxy-6-methyl-1,4-oxazacycloheptane-4-yl)quinazoline-6-carbonitrile]	–	58.3	–
